The supplement of paper PMC11061612

Legend:
[1] = tested on: LCLC-103H (Non-Small Cell Lung Carcinoma); assay: Bliss excess, mean over the matrix (fraction); higher = more synergy
In short: (§1)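 Cell lines grown in DMEM/F12 or RPMI with 10% FBS were plated in 1536-well plates and held 24 hours at 37°C, 5% CO2 before 72 hours of exposure to two-drug dose matrices, with DMSO typically at 0.2%. CellTiter-Glo 2.0 luminescence gave viability, which was converted to inhibition. Vehicle wells were set to 0 and blank wells to 1. Combination Emax is the second-highest inhibition in the matrix, and Bliss excess is the observed combination effect minus the expected EA + EB − EA·EB, where EA and EB are the single-agent effects.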

[2] = tested on: NCI-H1341 (Small Cell Lung Carcinoma); assay: as above
In short: as §1

[3] = tested on: SNU-423 (Hepatocellular Carcinoma); assay: as above
In short: as §1

[4] = tested on: C-33-A (Cervical Carcinoma); assay: combination Emax (second highest fraction inhibited in the dose matrix, 72 h); higher = more inhibition; extreme values may be limits of the assay
In short: as §1

[5] = tested on: CL-11 (Colorectal Carcinoma); assay: as above
In short: as §1

[6] = tested on: CPC-N (Small Cell Lung Carcinoma); assay: as above
In short: as §1

[7] = tested on: DBTRG-05MG (Glioblastoma); assay: as above
In short: as §1

[8] = tested on: HT-1080 (Other Solid Carcinomas); assay: as above
In short: as §1

[9] = tested on: LS-1034 (Colorectal Carcinoma); assay: as above
In short: as §1

[10] = tested on: MM1S (Plasma Cell Myeloma); assay: as above
In short: as §1

[11] = tested on: NCI-H1341 (Small Cell Lung Carcinoma); assay: as above
In short: as §1

[12] = tested on: NCI-H1876 (Small Cell Lung Carcinoma); assay: as above
In short: as §1

[13] = tested on: OAW-28 (Ovarian Carcinoma); assay: as above
In short: as §1

[14] = tested on: OVCAR-3 (Ovarian Carcinoma); assay: as above
In short: as §1

[15] = tested on: Raji (Burkitt's Lymphoma); assay: as above
In short: as §1

[16] = tested on: SAT (Head and Neck Carcinoma); assay: as above
In short: as §1

SK-N-SH (Neuroblastoma) = assay: as above
In short: as §1

[17] = tested on: SNU-C2B (Colorectal Carcinoma); assay: as above
In short: as §1

[18] = tested on: SiHa (Cervical Carcinoma); assay: as above
In short: as §1

[19] = tested on: T84 (Colorectal Carcinoma); assay: as above
In short: as §1
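Throughout, for Bliss excess, mean over the matrix: after 72 h of two-drug dosing.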

Compound	Bliss excess [1]	Bliss excess [2]	Bliss excess [3]	combination Emax [4]	combination Emax [5]	combination Emax [6]	combination Emax [7]	combination Emax [8]	combination Emax [9]	combination Emax [10]	combination Emax [11]	combination Emax [12]	combination Emax [13]	combination Emax [14]	combination Emax [15]	combination Emax [16]	combination Emax (SK-N-SH (Neuroblastoma))	combination Emax [17]	combination Emax [18]	combination Emax [19]
Cc1c2c(nn1C)CSCc1cc(n(C)n1)CSc1cc(c3ccccc3c1)OCCCc1c(C(=O)O)n(C)c3c-2c(Cl)ccc13 [AZD5991] + C[C@@H]1COCCN1C2=NC(=NC(=C2)C3(CC3)[S@](=N)(=O)C)C4=C5C=CNC5=NC=C4 [AZD6738] (first compound max 1 µM, 7x7, partner max 10 µM)	0.0224	0.0751	0.0026	0.923	0.645	0.874	0.232	0.495	0.673	1	0.71	0.97	0.52	0.567	0.974	0.79	0.961	0.49	0.318	0.669
COc1cccc2c1C(=O)c1c(O)c3c(c(O)c1C2=O)C[C@@](O)(C(=O)CO)C[C@@H]3O[C@H]1C[C@H](N)[C@H](O)[C@H](C)O1 [Doxorubicin] + Cc1cc2ncnn2cc1Nc1ncc2c(n1)n(C1CCOCC1)c(=O)n2C [AZD7648] (first compound max 1 µM, 7x7, partner max 10 µM)	0.0261	0.0628	0.0414	0.904	0.602	0.911	0.588	0.67	0.376	0.922	0.905	0.978	0.534	0.426	0.96	0.616	0.974	0.546	0.571	0.163
Cc1c2c(nn1C)CSCc1cc(n(C)n1)CSc1cc(c3ccccc3c1)OCCCc1c(C(=O)O)n(C)c3c-2c(Cl)ccc13 [AZD5991] + C[C@@H](Nc1cc(F)cc(F)c1)c1cc(C(=O)N(C)C)cc2c(=O)cc(N3CCOCC3)oc12 [AZD8186] (first compound max 1 µM, 7x7, partner max 3 µM)	0.0125	0.0352	-0.0326	0.224	0.155	0.294	0.266	0.157	0.172	0.958	0.706	0.711	0.418	0.439	0.749	0.747	0.481	0.177	0.356	0.139
CC1(C)CCC(CN2CCN(c3ccc(C(=O)NS(=O)(=O)c4ccc(NCC5CCOCC5)c([N+](=O)[O-])c4)c(Oc4cnc5[nH]ccc5c4)c3)CC2)=C(c2ccc(Cl)cc2)C1 [Venetoclax] + C[C@@H]1COCCN1C2=NC(=NC(=C2)C3(CC3)[S@](=N)(=O)C)C4=C5C=CNC5=NC=C4 [AZD6738] (first compound max 1 µM, 7x7, partner max 10 µM)	-0.0085	0.0142	-0.0801	0.92	0.681	0.936	0.288	0.425	0.624	0.527	0.757	0.942	0.472	0.48	0.733	0.423	0.915	0.592	0.286	0.702
CN(CCO)CC[C@H](CSc1ccccc1)Nc1ccc(S(=O)(=O)NC(=O)c2ccc(N3CCC([C@@H](O)c4ccccc4-c4ccc(Cl)cc4)CC3)cc2)cc1S(=O)(=O)C(F)(F)F [AZD4320] + CCN(CCO)CCCOc1ccc2c(Nc3cc(CC(=O)Nc4cccc(F)c4)[nH]n3)ncnc2c1 [AZD2811] (first compound max 1 µM, 7x7, partner max 1 µM)	-0.0157	0.0422	-0.0325	0.151	0.0894	0.971	0.775	0.594	0.251	1	1	0.998	0.958	0.234	0.219	0.375	0.761	0.168	0.162	0.0513
COc1nnc2ccc(N3CCC(c4ccc(OCCN5CCN(C)C(=O)[C@H]5C)cc4)CC3)nn12 [AZD5153] + C[C@@H]1COCCN1C2=NC(=NC(=C2)C3(CC3)[S@](=N)(=O)C)C4=C5C=CNC5=NC=C4 [AZD6738] (first compound max 1 µM, 7x7, partner max 10 µM)	0.0525	0.0243	-0.0023	0.958	0.833	0.967	0.307	0.579	0.758	0.778	0.955	0.887	0.851	0.821	0.875	0.804	0.861	0.658	0.639	0.583
COc1cccc(OCCCN)c1-c1cc(Nc2cnc(C#N)cn2)n[nH]1 [Prexasertib] + O=C(c1cc(Cc2n[nH]c(=O)c3ccccc23)ccc1F)N1CCN(C(=O)C2CC2)CC1 [Olaparib] (first compound max 1 µM, 7x7, partner max 10 µM)	-0.0572	-0.0022	-0.0011	0.819	0.77	0.984	0.326	0.542	0.685	0.931	0.884	0.981	0.48	0.821	0.982	0.595	0.834	0.66	0.404	0.826
COc1cc2ncnc(Nc3ccc(F)c(Cl)c3)c2cc1OCCCN1CCOCC1 [Gefitinib] + CC(C)n1c(=O)n(C)c2cnc3cc(F)c(-c4ccc(OCCCN5CCCCC5)nc4)cc3c21 [AZD1390] (first compound max 10 µM, 7x7, partner max 0.3 µM)	-0.0119	-0.0399	-0.0902	0.485	0.0239	0.0984	0.0768	0.0949	0.117	0.217	0.108	0.178	0.215	0.0817	0.162	0.69	0.0891	0.246	0.0755	0.227
NC1(C(=O)N[C@@H](CCO)c2ccc(Cl)cc2)CCN(c2ncnc3[nH]ccc23)CC1 [Capivasertib] + CCN(CCO)CCCOc1ccc2c(Nc3cc(CC(=O)Nc4cccc(F)c4)[nH]n3)ncnc2c1 [AZD2811] (first compound max 10 µM, 7x7, partner max 1 µM)	-0.0032	-0.0036	-0.0676	0.712	0.272	0.781	0.317	0.256	0.302	0.998	0.655	0.941	0.249	0.344	0.293	0.502	0.476	0.329	0.299	0.389
CN(C)CCCOc1ccc(-c2ccc3ncc4c(c3c2)n(C2CCOCC2)c(=O)n4C)cn1 [AZD0156] + C[C@@H]1COCCN1C2=NC(=NC(=C2)C3(CC3)[S@](=N)(=O)C)C4=C5C=CNC5=NC=C4 [AZD6738] (first compound max 1 µM, 7x7, partner max 10 µM)	-0.0352	0.0309	-0.0414	0.886	0.767	0.952	0.251	0.507	0.615	0.698	0.849	0.938	0.39	0.271	0.87	0.361	0.87	0.681	0.234	0.668
Cn1cnc2c(F)c(Nc3ccc(Br)cc3Cl)c(C(=O)NOCCO)cc21 [Selumetinib] + C[C@@H]1COCCN1C2=NC(=NC(=C2)C3(CC3)[S@](=N)(=O)C)C4=C5C=CNC5=NC=C4 [AZD6738] (first compound max 10 µM, 7x7, partner max 10 µM)	-0.0399	0.0757	-0.0238	0.894	0.873	0.824	0.358	0.461	0.811	0.475	0.809	0.895	0.598	0.4	0.722	0.561	0.769	0.468	0.209	0.667
Cc1c2c(nn1C)CSCc1cc(n(C)n1)CSc1cc(c3ccccc3c1)OCCCc1c(C(=O)O)n(C)c3c-2c(Cl)ccc13 [AZD5991] + C1CN(CCC1(C(=O)N[C@@H](CCO)C2=CC=C(C=C2)Cl)N)C3=NC=NC4=C3C=CN4 [Capivasertib] (first compound max 1 µM, 7x7, partner max 3 µM)	-0.0025	0.0609	-0.0822	0.689	0.133	0.338	0.199	0.139	0.22	1	0.647	0.673	0.224	0.185	0.692	0.738	0.387	0.135	0.23	0.0983
CN(CCO)CC[C@H](CSc1ccccc1)Nc1ccc(S(=O)(=O)NC(=O)c2ccc(N3CCC([C@@H](O)c4ccccc4-c4ccc(Cl)cc4)CC3)cc2)cc1S(=O)(=O)C(F)(F)F [AZD4320] + Cn1cnc2c(F)c(Nc3ccc(Br)cc3Cl)c(C(=O)NOCCO)cc21 [Selumetinib] (first compound max 1 µM, 7x7, partner max 3 µM)	0.0112	0.0615	-0.0228	0.531	0.811	0.955	0.702	0.666	0.594	0.983	0.99	1	0.984	0.563	0.338	0.591	0.995	0.422	0.247	0.319
